Several values for one entry are separate records, joined by “and”; a condition that tells them apart may be missing. Equal values may be shown once.
System: hypertriglyceridemic patients with cardiovascular disease or at high risk for cardiovascular disease
Test: REDUCE-IT: time to first occurrence of adjudicated cardiovascular endpoint events (primary, key secondary, other secondary, tertiary; sensitivity and landmark analyses)
Type: in vivo
Conditions: for New Onset Hypertension, patients with event: non-adjudicated
Excerpt: The following study, also referred to as the REDUCE-IT clinical trial, was a large cardiovascular (CV) outcome trial designed to assess CV risk reduction benefit of AMR101 treatment (commercially known as VASCEPA®) versus placebo on the 5-point primary composite endpoint: CV death, non-fatal stroke, non-fatal myocardial infarction (MI), coronary revascularizations, or unstable angina requiring hospitalization.
A multi-center, prospective, randomized, double-blind, placebo-controlled, parallel-group study was performed to evaluate the effect of AMR101 (4 g per day) on cardiovascular health and mortality in hypertriglyceridemic patients with cardiovascular disease or at high risk for cardiovascular disease. The intended expanded indication of the study was treatment with AMR101 as an add-on to statin therapy to reduce the risk of cardiovascular events in patients with clinical cardiovascular disease or with multiple risk factors for cardiovascular disease.
The primary objective of this study was, in patients at LDL-C goal while on statin therapy, with established cardiovascular disease (CVD) or at high risk for CVD, and hypertriglyceridemia (e.g., fasting triglycerides (TG) ≥200 mg/dL and <500 mg/dL), to evaluate the effect of AMR101 4 g daily on time from randomization to first occurrence of any component of the composite of the following major CV events: CV death; nonfatal MI; (including silent MI; electrocardiograms (ECGs) were performed annually for the detection of silent MIs); nonfatal stroke; coronary revascularization; and unstable angina determined to be caused by myocardial ischemia by invasive/non-invasive testing and requiring emergent hospitalization.
The key secondary objective of this study was to evaluate the effect of AMR101 4 g daily on the time from randomization to the first occurrence of the composite of following major CV events: CV death, nonfatal MI (including silent MI), and nonfatal stroke.
Other secondary objectives for this study were to evaluate the effect of therapy on time from randomization to the first occurrence of the following individual or composite endpoints: composite of CV death or nonfatal MI (including silent MI); fatal or nonfatal MI (including silent MI); non-elective coronary revascularization represented as the composite of emergent or urgent classifications; CV death; unstable angina determined to be caused by myocardial ischemia by invasive/non-invasive testing and requiring emergent hospitalization; fatal or nonfatal stroke; composite of total mortality, nonfatal MI (including silent MI), or nonfatal stroke; and total mortality.
The key tertiary objectives for this study were to evaluate the effect of AMR101 4 g daily from baseline and percent change from baseline in fasting triglycerides and LDL-C. […]

[1] = ITT population, 4 g daily, N = 4089
[2] = ITT population, listed as Icosapent Ethyl

## CC/C=C\C/C=C\C/C=C\C/C=C\C/C=C\CCCC(=O)OCC [AMR101, eicosapentaenoic acid ethyl ester]
2-year landmark, ITT population
  Key secondary endpoint, HR: 0.831
4 g per day
  Fatal or nonfatal MI, relative risk reduction: 31%
  Fatal or nonfatal stroke, relative risk reduction: 28%
  Hospitalization for unstable angina, relative risk reduction: 32%
  Total mortality, nonfatal MI, or nonfatal stroke, relative risk reduction: 23%
  Total mortality, relative risk reduction: 13%
  Urgent or emergent revascularization, relative risk reduction: 35%
CEC-adjudicated
  Non-CV deaths, patients: 2.4%
CEC-adjudicated deaths
  Total mortality, patients: 6.7%
ITT population
  Component contributing to key secondary endpoint (first event): CV Death: 149 (3.6) n (%)
  Component contributing to key secondary endpoint (first event): Nonfatal MI: 230 (5.6) n (%)
  Component contributing to key secondary endpoint (first event): Nonfatal Stroke: 80 (2.0) n (%)
  Component contributing to primary endpoint (first event): CV Death: 137 (3.4) n (%)
  Component contributing to primary endpoint (first event): Coronary Revascularization: 189 (4.6) n (%)
  Component contributing to primary endpoint (first event): Hospitalization for Unstable Angina: 94 (2.3) n (%)
  Component contributing to primary endpoint (first event): Nonfatal MI: 205 (5.0) n (%)
  Component contributing to primary endpoint (first event): Nonfatal Stroke: 80 (2.0) n (%)
  Composite: CV Death, Nonfatal MI, Non-Elective Coronary Revascularization, Unstable Angina, Nonfatal Stroke, or PVD Requiring Intervention: 683 (16.7) n (%)
  Composite: CV Death, Nonfatal MI, Non-Elective Coronary Revascularization, Unstable Angina, Nonfatal Stroke, or PVD Requiring Intervention, HR (95% CI): 0.77 (0.70-0.86)
  Composite: CV Death, Nonfatal MI, Non-Elective Coronary Revascularization, Unstable Angina, PVD Requiring Intervention, or Cardiac Arrhythmia: 741 (18.1) n (%)
  Composite: CV Death, Nonfatal MI, Non-Elective Coronary Revascularization, Unstable Angina, PVD Requiring Intervention, or Cardiac Arrhythmia, HR (95% CI): 0.86 (0.78-0.94)
  Composite: CV Death, Nonfatal MI, Non-Elective Coronary Revascularization, or Unstable Angina: 513 (12.5) n (%)
  Composite: CV Death, Nonfatal MI, Non-Elective Coronary Revascularization, or Unstable Angina, HR (95% CI): 0.76 (0.68-0.85)
  Composite: CV Death, Nonfatal MI, Nonfatal Stroke, Cardiac Arrhythmia, or Cardiac Arrest: 589 (14.4) n (%)
  Composite: CV Death, Nonfatal MI, Nonfatal Stroke, Cardiac Arrhythmia, or Cardiac Arrest, HR (95% CI): 0.82 (0.73-0.91)
  Coronary Revascularization (all), HR (95% CI): 0.66
  Coronary Revascularization (all), patients with event: 9.2%
  Fatal or nonfatal MI (including silent MI), patients with event: 6.1%
  Fatal or nonfatal MI, HR: 0.688
  Fatal or nonfatal stroke, HR: 0.720
  Fatal or nonfatal stroke, patients with event: 2.4%
  Hospitalization for unstable angina, HR: 0.679
  Hospitalization for unstable angina, patients with event: 2.6%
  Key secondary endpoint in patients with impaired glucose metabolism at baseline, HR: 0.829
  Key secondary endpoint in patients with impaired glucose metabolism at baseline, patients with event: 11.3%
  New Heart Failure (newly emergent CHF), HR (95% CI): 0.95
  New Heart Failure (newly emergent CHF), patients with event: 4.1%
  New Onset Hypertension, HR (95% CI): 0.86
  Non-elective (emergent or urgent) coronary revascularization, HR: 0.653
  Peripheral Artery Disease, HR (95% CI): 0.97
  Peripheral Artery Disease, patients with event: 3.8%
  Primary endpoint in patients with diabetes at baseline, HR (95% CI): 0.769 (0.677-0.873)
  Primary endpoint in patients with diabetes at baseline, patients with event: (18.1%)
  Primary endpoint in patients with impaired glucose metabolism at baseline, HR (95% CI): 0.795 (0.675-0.937)
  Primary endpoint in patients with metabolic syndrome at baseline, HR (95% CI): 0.744 (0.671-0.824)
  Silent MI, patients with event: 0.7%
  Sudden Cardiac Death, HR (95% CI): 0.69
  Total Mortality or Newly Emergent CHF: 393 (9.6) n (%)
  Total Mortality or Newly Emergent CHF, HR (95% CI): 0.90 (0.78-1.03)
  Total mortality, HR: 0.87
  Total mortality, nonfatal MI, or nonfatal stroke, HR: 0.772
  New Onset Hypertension, patients with event: 0.3%
[1]
  Key secondary composite endpoint (CV death, nonfatal MI, nonfatal stroke), patients with event: 459 (11.2%) n (%) and 459 (11.2) n (%)
  Primary composite endpoint (CV death, nonfatal MI, nonfatal stroke, coronary revascularization, hospitalization for unstable angina), patients with event: 705 (17.2%) n (%) and 705 (17.2) n (%)
[2]
  New Onset Hypertension, patients with event: (0.3) %
  Amputation for PVD, patients with event: (0.5%)
  Cardiac Arrest, HR (95% CI): 0.52 (0.31, 0.86)
  Cardiac Arrest, patients with event: (0.5%)
  Coronary Revascularization (all), HR (95% CI): 0.66 (0.58, 0.76)
  Coronary Revascularization (all), patients with event: (9.2%)
  Elective Revascularization, HR (95% CI): 0.68 (0.57, 0.82)
  Elective Revascularization, patients with event: (4.7%)
  Emergent Revascularization, HR (95% CI): 0.62 (0.42, 0.92)
  Emergent Revascularization, patients with event: (1.0%)
  Ischemic Stroke, HR (95% CI): 0.64 (0.49, 0.85)
  Ischemic Stroke, patients with event: (2.0%)
